In the NIST ThermoML archive (doi:10.1016/j.jct.2005.01.015):
± gives the expanded uncertainty stated by the source.

Test: activity coefficient (dimensionless); of the first substance listed, at infinite dilution; xn = mol fraction of the nth substance listed
Conditions: 101 kPa, Liquid, Chromatography, x1 = 0

For `C1CCCCCC1` [cycloheptane] + CCCCn1cc[n+](C)c1.COCCOCCOS(=O)(=O)[O-], the activity coefficient (298.15 K) was 41.8 ± 1.9, the activity coefficient (303.15 K) was 38.2 ± 1.8 and the activity coefficient (308.15 K) was 36.4 ± 1.7.

In the case of `C1CCCCC1` [cyclohexane] + CCCCn1cc[n+](C)c1.COCCOCCOS(=O)(=O)[O-], the activity coefficient (298.15 K) is reported as 34.4 ± 1.6, the activity coefficient (303.15 K) is reported as 31.5 ± 1.5 and the activity coefficient (308.15 K) is reported as 30.3 ± 1.4.

`C#CCCCCCC` [1-octyne] + CCCCn1cc[n+](C)c1.COCCOCCOS(=O)(=O)[O-] gave an activity coefficient (298.15 K) of 11.7 ± 0.5, an activity coefficient (303.15 K) of 11.4 ± 0.5 and an activity coefficient (308.15 K) of 11.6 ± 0.5.

`CCCCCCC` [heptane] + CCCCn1cc[n+](C)c1.COCCOCCOS(=O)(=O)[O-] gave an activity coefficient (298.15 K) of 111 ± 5.2, an activity coefficient (303.15 K) of 100 ± 4.7 and an activity coefficient (308.15 K) of 94.5 ± 4.4.

Compound `CCCCCC` [hexane] + CCCCn1cc[n+](C)c1.COCCOCCOS(=O)(=O)[O-] has an activity coefficient (298.15 K) of 80.9 ± 3.8, an activity coefficient (303.15 K) of 74.1 ± 3.5 and an activity coefficient (308.15 K) of 71.1 ± 3.3.

Work on `C=CCCCC` [hex-1-ene] + CCCCn1cc[n+](C)c1.COCCOCCOS(=O)(=O)[O-] yielded an activity coefficient (298.15 K) of 35.1 ± 1.6, an activity coefficient (303.15 K) of 32.9 ± 1.5 and an activity coefficient (308.15 K) of 31.4 ± 1.5.

Work on `c1ccccc1` [benzene] + CCCCn1cc[n+](C)c1.COCCOCCOS(=O)(=O)[O-] yielded an activity coefficient (298.15 K) of 2.04 ± 0.09, an activity coefficient (303.15 K) of 2.02 ± 0.09 and an activity coefficient (308.15 K) of 2.03 ± 0.09.

For `CCCCC` [pentane] + CCCCn1cc[n+](C)c1.COCCOCCOS(=O)(=O)[O-], the activity coefficient (298.15 K) was 61.7 ± 2.9, the activity coefficient (303.15 K) was 57.1 ± 2.7 and the activity coefficient (308.15 K) was 54.9 ± 2.6.

Work on `C#CCCCCC` [1-heptyne] + CCCCn1cc[n+](C)c1.COCCOCCOS(=O)(=O)[O-] yielded an activity coefficient (298.15 K) of 7.37 ± 0.34, an activity coefficient (303.15 K) of 7.22 ± 0.33 and an activity coefficient (308.15 K) of 7.42 ± 0.34.

For `C1CCCC1` [cyclopentane] + CCCCn1cc[n+](C)c1.COCCOCCOS(=O)(=O)[O-], the activity coefficient (298.15 K) was 22.7 ± 1.1, the activity coefficient (303.15 K) was 20.9 ± 1 and the activity coefficient (308.15 K) was 20.5 ± 0.9.

`CCCCCCCC` [octane] + CCCCn1cc[n+](C)c1.COCCOCCOS(=O)(=O)[O-] gave an activity coefficient (298.15 K) of 156 ± 7.3, an activity coefficient (303.15 K) of 140 ± 6.6 and an activity coefficient (308.15 K) of 130 ± 6.1.

`CO` [methanol] + CCCCn1cc[n+](C)c1.COCCOCCOS(=O)(=O)[O-] gave an activity coefficient (298.15 K) of 0.345 ± 0.035, an activity coefficient (303.15 K) of 0.342 ± 0.035 and an activity coefficient (308.15 K) of 0.337 ± 0.035.

Work on `C=CCCCCCC` [oct-1-ene] + CCCCn1cc[n+](C)c1.COCCOCCOS(=O)(=O)[O-] yielded an activity coefficient (298.15 K) of 74.9 ± 3.5, an activity coefficient (303.15 K) of 69.9 ± 3.3 and an activity coefficient (308.15 K) of 67.1 ± 3.1.

`Cc1ccccc1` [toluene] + CCCCn1cc[n+](C)c1.COCCOCCOS(=O)(=O)[O-] showed an activity coefficient (298.15 K) of 3.72 ± 0.17, an activity coefficient (303.15 K) of 3.69 ± 0.17 and an activity coefficient (308.15 K) of 3.66 ± 0.17.

Work on `C#CCCCC` [1-hexyne] + CCCCn1cc[n+](C)c1.COCCOCCOS(=O)(=O)[O-] yielded an activity coefficient (298.15 K) of 4.83 ± 0.22, an activity coefficient (303.15 K) of 4.74 ± 0.22 and an activity coefficient (308.15 K) of 4.91 ± 0.22.

For `ClC(Cl)(Cl)Cl` [tetrachloromethane] + CCCCn1cc[n+](C)c1.COCCOCCOS(=O)(=O)[O-], the activity coefficient (298.15 K) was 2.81 ± 0.13, the activity coefficient (303.15 K) was 2.85 ± 0.13 and the activity coefficient (308.15 K) was 2.91 ± 0.13.
